In patent US20110293658A1, “USE OF INKT OR TLR AGONISTS FOR PROTECTING AGAINST OR TREATING A DISEASE SUCH AS ACUTE INFECTION OR CANCER” (LUDWIG INSTITUTE FOR CANCER RESEARCH LTD., priority 2008, published 2011):
Where “and” joins values, the source holds several entries; their conditions need not be identical. Equal entries are not always repeated.

How the values were obtained:
BM derived MDSC [1] = assay: OT-I proliferation assay with BM derived MDSC; assay type: cell-based, mouse; conditions: MDSC pulsed with α-GalCer in the presence of BM resident iNKT cells from WT mice
BM derived MDSC [2] = assay: Phenotypic analysis of treated MDSC (FACS); assay type: cell-based, mouse
IL-23 and IL-12p70 = IL-23 and IL-12p70 secretion by α-GalCer pulsed MDSC; assay type: cell-based, mouse; conditions: MDSC pulsed with α-GalCer in the presence of iNKT cells; data not shown
[3] = test system: CD11b+ cells from IAV infected individuals; assay type: cell-based, human; conditions: α-GalCer 100 ng/ml in presence of iNKT cells at MDSC:iNKT ratio 1:0.25, or ARG1 and NOS2 inhibitors; DC:CD11b+ 1:1
human MDSC = assay: iNKT cell dependent killing of α-GalCer pulsed human MDSC (Propidium Iodide); assay type: cell-based; conditions: α-GalCer 100 ng/ml, MDSC:iNKT cell ratio of 1:0.25, 24 h
Protocol: (B) Conditions to prevent lysis of α-GalCer pulsed human MDSC by iNKT cells. Human MDSC (0.5×10^6) were treated with α-GalCer (100 ng/ml) and co-cultured with increasing numbers of iNKT cells for 24 h. MDSC were stained with Propidium Iodide to calculate the percentage of iNKT cell dependent MDSC killing.

NOS2 = NOS2 activity of α-GalCer pulsed MDSC (nitrate/nitrite release); assay type: cell-based, mouse; conditions: MDSC pulsed with 100 ng α-GalCer in the presence of iNKT cells
Protocol: (§1) (A) Loss of ARG1 and NOS2 activity in α-GalCer pulsed MDSC incubated with BM derived iNKT cells. MDSC were treated with α-GalCer in the presence of iNKT cells and collected at different time points. ARG1 and NOS2 activities were measured using a colorimetric assay to evaluate urea and nitrate/nitrite release, respectively (De Santo et al. 2005. Proc Natl Acad Sci USA 102:4185-4190. Serafini et al. 2006. J Exp Med 203:2691-2702). An ELISA was used to evaluate IL-12p40 production. Values are shown as a percentage of time point 0. The maximum amount of urea released by untreated MDSC (1×10^6) was 91.7 μg. The maximum amount of […] measured in the supernatant of untreated MDSC was 120 μM. The maximum amount of IL-12p40 was 200 ng/ml.
(§2) Measuring activity of MDSC enzymes. ARG1 and NOS2 activities of α-GalCer pulsed BM-derived MDSC co-cultured with BM derived iNKT cells were assessed at different time points. NOS2 activity was measured from supernatants by Griess reaction, as the amount of NO3- and NO2-produced using a nitrate/nitrite assay kit (Cayman Chemicals) (Proc Natl Acad Sci USA 102:4185-4190). ARG1 activity was measured in cell lysates, as previously described (Proc Natl Acad Sci USA 102:4185-4190).

iNKT cells = assay: IFN-γ release from iNKT cells incubated with α-GalCer pulsed CD11b+ cells; assay type: cell-based, human; conditions: α-GalCer pulsed CD11b+ cells from IAV infected patients, 24 h
Protocol: (C) iNKT cells are activated by α-GalCer pulsed CD11b^+ cells from IAV infected patients. IFN-γ release from iNKT cells incubated for 24 h with α-GalCer pulsed CD11b^+ cells, derived from the IAV infected patients and healthy controls described in FIG. 7. Data represent the average of 3 replicates ±S.D.

BM derived MDSC [4] = assay: iNKT cell dependent lysis of α-GalCer pulsed MDSC; assay type: cell-based, mouse; conditions: MDSC pulsed with 100 ng of α-GalCer
Protocol: CFSE labelled BM derived MDSC were either pulsed or not pulsed with α-GalCer and incubated with CD11c and Gr-1 depleted BM cultures, which contain iNKT cells.

CD11bCD15 positive cells = assay: Melan-A priming experiments with CD11bCD15 positive cells from melanoma patients; assay type: cell-based, human; conditions: CD11bCD15 positive cells pulsed with alphaGalCer 100 ng or Threitolceramide 200 ng
Protocol: CD11bCD15 positive cells were pulsed with either alphaGalCer (100 ng) or Threitolceramide (200 ng) for 2 hours and then incubated with autologous iNKT cells overnight before adding autologous DC pulsed with Melan-A26-35 peptide and autologous CD11bCD15 cell depleted total leukocytes.
Experiments in FIG. 29 were carried out using the same conditions as shown in the right column of FIG. 28 (i.e. in the presence of iNKT cells and alphaGalCer pulsed CD11bCD15 positive cells) in the presence of either blocking anti CD1d (middle column) or blocking anti CD40 (right column) antibodies.
In order to assess whether secretion of IL-10 is contributing to the suppressive activity of CD11bCD15 positive cells, expansion of Melan-A26-35 specific T cell responses as assessed in the presence or absence of blocking anti 11-10 receptor antibodies. In the left hand panel of FIG. 31, expansion of Melan-A26-35 specific T cells was assessed using total leukocytes from which CD11b-CD15+ cells were removed (2.33%). Addition of CD11bCD15 positive cells reduced the frequency of Melan-A26-35 specific T cells (0.83%) (central panel).
Purification of CD11b/CD15+ cells. Since CD15 CD11b positive cells have granulocyte density, it is important to purify them without using density gradients, such as Ficol. Red blood cells are lysed from whole blood, using red lysis cell buffer and anti CD11b/CD15 specific antibodies are added to the leukocytes for FACS guided cell sorting.
Melan-A priming experiments. DCs were generated by culturing monocytes for 4 days in RPMI/10% FCS supplemented with 50 ng/ml GM-CSF (Pepro-tech) and 1,000 U/ml IL-4 (Salio, M., et al. 2007. Proc. Natl. Acad. Sci. U.S.A. 104:20490-20495). […] After 2 weeks, cells were stained with HLA-A2 tetramers loaded with melan-A26-35 peptide and anti CD8.
Harnessing iNKT cells. The protocol to purify Cdl lbCd15 cells and differentiate DC is similar to the protocol described earlier. Cdl lbCd15 cells were pulsed with either alphaGalCer (100 ng) or with threitolceramide (200 ng) and then incubated with iNKT cells for 12 hours. Cells were then washed pulsed with the melan-A26-35 peptide and incubated with total leukocytes. After 2 weeks in culture, cells were stained with HLA-A2 melan-A tetramers and anti-CD8 antibodies.

ARG1 = ARG1 activity of α-GalCer pulsed MDSC (urea release); assay type: cell-based, mouse; conditions: MDSC pulsed with 100 ng α-GalCer in the presence of iNKT cells
Protocol: as §1, §2

IL-12p40 = IL-12p40 production by MDSC (ELISA); assay type: cell-based, mouse; conditions: MDSC pulsed with 100 ng α-GalCer in the presence of iNKT cells
[5] = test system: EG7 cells (EL4 tumor cell line transfected with ovalbumin cDNA); set-up: species or system C57 BL/6 mice; conditions: mouse, in vivo, iv

`CCCCCCCCCCCCCCCCCCCCCCCCCC(=O)N[C@@H](CO[C@H]1O[C@H](CO)[C@H](O)[C@H](O)[C@H]1O)[C@H](O)[C@H](O)CCCCCCCCCCCCCC` [α-GalCer, α-Galactosylceramide] was tested, and the “MDSC suppression of CFSE labelled OT-I proliferation” value (BM derived MDSC [1]) was “completely relieved”, the “differentiation of CD11c- MDSC (CD11c expression)” value (BM derived MDSC [2]; CFSE labelled α-GalCer pulsed MDSC incubated with iNKT cells, 48 h) was “differentiation into CD11c^+ cells” and the “CD86 and MHC class II expression” value (BM derived MDSC [2]; α-GalCer pulsed MDSC incubated with iNKT cells, data not shown) was “up-regulation”. For the same molecule, the “secretion of IL-23 and IL-12p70” value (IL-23 and IL-12p70) was “No secretion”, the “suppressive activity of CD11b+ cells collected from IAV infected individuals (MLR proliferation)” value [3] was “could be reduced” and the “iNKT cell dependent MDSC lysis” value (human MDSC) was “did not cause iNKT cell dependent MDSC lysis”. The NOS2 activity (NOS2) was “reduction”, the “activation of iNKT cells (IFN-γ release)” value (iNKT cells) was “activated” and the “lysis of pulsed MDSC by iNKT cells” value (BM derived MDSC [4]) was “not lysed”. The “frequency of Melan-A26-35 specific T cells” value (CD11bCD15 positive cells; in the absence of added iNKT cells, unpulsed 0.34%) was 0.32%, the “frequency of Melan-A26-35 specific T cells” value (CD11bCD15 positive cells; with addition of autologous iNKT cells) was 3.05% and 6.42% and the ARG1 activity (ARG1) was “reduction”. For the same molecule, the “secretion of IL-12 p40” value (IL-12p40) was “enhanced secretion”, the “frequency of MDSCs (CD11b+Gr1+ positive cells)” value [5] was “lower frequency” and the “frequency of Ova specific T cell responses (H-2Kb tetramer staining)” value [5] was “higher frequency”. For the same molecule, the “tumor size / tumor regression” value [5] was “Tumour regression”.
